Test results: ChEMBL document CHEMBL1156959, “Potent ketoamide inhibitors of HCV NS3 protease derived from quaternized P1 groups” (Bioorg Med Chem Lett, 2010)

Experiments:
[1] = tested on: Hepatitis C virus; assay: Inhibition of Hepatitis C virus genotype 1 NS3 protease; type: functional
[2] = tested on: Hepatitis C virus; assay: Antiviral activity against Hepatitis C virus genotype 1 assessed as Inhibition of RNA replication transfected in human hepatoma cells; type: functional, Hepacivirus hominis

| EC90 [2] [nM] | Compound | Ki [1] [nM] |
| --- | --- | --- |
|  | CC[C@@H]1C[C@@]1(NC(=O)[C@@H]1[C@@H]2[C@H](CN1C(=O)[C@@H](NC(=O)NC1(CS(=O)(=O)C(C)(C)C)CCCCC1)C(C)(C)C)C2(C)C)C(=O)C(=O)NC1CC1 | 0.11 |
|  | CC(C)(C)[C@H](NC(=O)NC1(CS(=O)(=O)C(C)(C)C)CCCCC1)C(=O)N1C[C@H]2[C@@H]([C@H]1C(=O)NC1(C(=O)C(=O)NC3CC3)CCC1)C2(C)C | 15 |
|  | CC[C@@H]1C[C@@]1(NC(=O)[C@@H]1[C@@H]2[C@H](CN1C(=O)[C@@H](NC(=O)NC1(CS(=O)(=O)C(C)(C)C)CCCCC1)C1CCCCC1)C2(C)C)C(=O)C(=O)NC1CC1 | 0.6 |
| 400 | CC[C@@H]1C[C@@]1(NC(=O)[C@@H]1[C@@H]2[C@H](CN1C(=O)[C@@H](NC(=O)NC1([C@@H](C)S(=O)(=O)C(C)(C)C)CCCCC1)C1(C)CCCCC1)C2(C)C)C(=O)C(N)=O | 0.015 |
| 500 | CC[C@@H]1C[C@@]1(NC(=O)[C@@H]1[C@@H]2[C@H](CN1C(=O)[C@@H](NC(=O)N[C@H](CN1C(=O)CC(C)(C)CC1=O)C(C)(C)C)C(C)(C)C)C2(C)C)C(=O)C(=O)NC1CC1 | 0.082 |
|  | CC(C)(C)[C@H](NC(=O)NC1(CS(=O)(=O)C(C)(C)C)CCCCC1)C(=O)N1C[C@H]2[C@@H]([C@H]1C(=O)NC1(C(=O)C(=O)NC3CC3)CC(O)C1)C2(C)C (stereo partly drawn) | 89 |
| 2700 | CC[C@@H]1C[C@@]1(NC(=O)[C@@H]1[C@@H]2[C@H](CN1C(=O)[C@@H](NC(=O)N[C@H](CN(C)S(C)(=O)=O)C(C)(C)C)C(C)(C)C)C2(C)C)C(=O)C(=O)NC1CC1 | 0.2 |
|  | CCC[C@@H]1C[C@@]1(NC(=O)[C@@H]1[C@@H]2[C@H](CN1C(=O)[C@@H](NC(=O)NC1(CS(=O)(=O)C(C)(C)C)CCCCC1)C(C)(C)C)C2(C)C)C(=O)C(=O)NC1CC1 | 0.7 |
|  | CC[C@@H]1C[C@@]1(NC(=O)[C@@H]1[C@@H]2[C@H](CN1C(=O)[C@@H](NC(=O)NC1([C@@H](C)S(=O)(=O)C(C)(C)C)CCCCC1)C1Cc3ccccc3C1)C2(C)C)C(=O)C(=O)NC1CC1 | 0.5 |
|  | CC(C)(C)[C@H](NC(=O)NC1(CS(=O)(=O)C(C)(C)C)CCCCC1)C(=O)N1C[C@H]2[C@@H]([C@H]1C(=O)NC1(C(=O)C(=O)NC3CC3)CC1)C2(C)C | 18 |
|  | CC1CC(NC(=O)[C@@H]2[C@@H]3[C@H](CN2C(=O)[C@@H](NC(=O)NC2(CS(=O)(=O)C(C)(C)C)CCCCC2)C(C)(C)C)C3(C)C)(C(=O)C(=O)NC2CC2)C1 (stereo partly drawn) | 0.42 |
| 350 | CC(C)(C)NC(=O)N[C@H](C(=O)N1C[C@H]2[C@@H]([C@H]1C(=O)NC(CC1CCC1)C(=O)C(N)=O)C2(C)C)C(C)(C)C (stereo partly drawn) [BOCEPREVIR] | 14 |
|  | CCC1CC(NC(=O)[C@@H]2[C@@H]3[C@H](CN2C(=O)[C@@H](NC(=O)NC2(CS(=O)(=O)C(C)(C)C)CCCCC2)C(C)(C)C)C3(C)C)(C(=O)C(=O)NC2CC2)C1 (stereo partly drawn) | 0.19 |
|  | CC[C@@H]1C[C@@]1(NC(=O)[C@@H]1[C@@H]2[C@H](CN1C(=O)[C@@H](NC(=O)NC1([C@@H](C)S(=O)(=O)C(C)(C)C)CCCCC1)C1(C)CCCCC1)C2(C)C)C(=O)C(=O)NC1CC1 | 0.95 |
| 400 | CC[C@@H]1C[C@@]1(NC(=O)[C@@H]1[C@@H]2[C@H](CN1C(=O)[C@@H](NC(=O)N[C@H](CN1C(=O)CC(C)(C)CC1=O)C(C)(C)C)C1(C)CCCCC1)C2(C)C)C(=O)C(N)=O | 0.023 |
|  | C[C@@H]1C[C@@]1(NC(=O)[C@@H]1[C@@H]2[C@H](CN1C(=O)[C@@H](NC(=O)NC1(CS(=O)(=O)C(C)(C)C)CCCCC1)C(C)(C)C)C2(C)C)C(=O)C(=O)NC1CC1 | 3 |
| 1600 | CC[C@@H]1C[C@@]1(NC(=O)[C@@H]1[C@@H]2[C@H](CN1C(=O)[C@@H](NC(=O)N[C@H](CN1C(=O)CC(C)(C)CC1=O)C(C)(C)C)C(C)(C)C)C2(C)C)C(=O)C(N)=O | 0.058 |
